Reference: patent publication US20140296137A1, “METHODS AND COMPOSITIONS FOR CONTROLLING ROTIFERS” (Los Alamos National Security, LLC, priority 2013, published 2014)
Like-named read-outs stand apart in the source and are kept apart here. Ends that are not written are not given here.

How the values were obtained:
[1] = tested on: Chlamydomonas reinhardtii
Experimental: (§1) This example provides the minimal inhibitory concentration (MIC) of antimicrobial peptides (AMPs) for algae. […] Therefore, the tolerance of algae to the AMPs listed in Table 2 of Example 1 was measured.
(§2) Briefly, the algae viability assay used herein measured the “health” of the algae cultures by looking at the color of the algae. […] A visual assay was used to determine the MIC for the individual AMPs on the algae. In each case, a light microscope with 20× magnification was used to observe algae color.
(§3) The effect of insecticidal and non-insecticidal AMPs on three different algae species was measured. The three algae species were Auxenochlorella protothecoides, Chlorella sorokiniana and Chlamydomonas reinhardtii.
(§4) Algae cultures were initiated in 96-well plates at an OD 750 of approximately 0.1. […] The antibiotics hygromycin and paromycin served as positive controls for inhibiting and/or reducing the growth rate of algae. […] The algae cultures were monitored by preparing microscopy slides with a small sample taken from the individual wells. The algae slides were then visualized under a 20× magnification microscope for algae viability as measured by algae color.

Chlorella protothecoides = tested on: Chlorella protothecoides
Experimental: as §1, §2, §3, §4

Chlorella sorokiniana = tested on: Chlorella sorokiniana
Experimental: as §1, §2, §3, §4

Adineta vaga = type: in vivo; parameters: key to the marks not given beside the values; settings: AMP 0.5 mg/mL, 24 hr time point, room temperature, visual motility score
Source text: (§5) Briefly, the rotifer motility assay used herein in the presence of a biocontrol agent (e.g., AMP) may be used as a measure of relative rotifer viability and competency. Rotifer diet, of which algae is considered to be an important food source, is one of the key environmental factors that impact the growth and multiplication of rotifers. In effect, the inability of a rotifer to be mobile (i.e., inability to swim toward a food source and/or to have mobile cilia that help trap food) prevents the rotifer from ingesting sufficient nutrients to further grow and reproduce. Thus, any approach that reduces and/or inhibits rotifer motility has a significant impact on an individual rotifer and therefore rotifer populations. With respect to algae cultures, reducing and/or inhibiting rotifer motility prevents and/or reduces any negative impact rotifers have on algae cultures (e.g., open pond systems for algae biomass and biofuel production). In other words, reducing and/or inhibiting rotifer motility reduces and/or prevents rotifers (e.g., infestations) from ingesting and consequently damaging algae cultures use in biofuel production.
(§6) The effect of the insecticidal and non-insecticidal AMPs of Table 2 (Example 1) on three different rotifer species was measured. The three rotifer species were Adineta vaga and Philodina acuticornis (class Bdelloid rotifers), and Brachionus (Monogononta class). A visual motility assay was used to determine the impact of the individual AMPs on rotifer viability. In each case, a light microscope with 20× magnification was used to observe rotifer motility (activity). […] FIGS. 1A, 1C and 1E show a 20× magnification of Adineta vaga, Philodina acuticornis and Brachionus (untreated), respectively. FIGS. 1B, 1D and 1F show a 20× magnification of Adineta vaga, Philodina acuticornis and Brachionus (AMP treated), respectively.
(§7) Rotifer cultures were initiated in 12-well or 24-well plates at a density of approximately 100-200 rotifers/mL. The 12-well plates contained a volume of 1 mL per well, and the 24-well plates contained a volume of about 0.25 mL to about 0.35 mL per well. Individual rotifer cultures (individual wells) were incubated with a select AMP at a concentration of 0.5 mg/mL (or a range of about 78 μM to about 365 μM) for 18, 21 and 24 hours at room temperature. The rotifer cultures were monitored by preparing microscopy slides with a small sample taken from the individual wells. The slides were then visualized under a 20× magnification microscope for rotifer motility. […] The scoring system was based on observing a subset of the rotifer population from each well. The impact on the subset of rotifers observed served as a representative of the impact on the entire rotifer population for that particular AMP treatment.
(§8) A summary of the motility assay (or “Kill Assay”) for each insecticidal and non-insecticidal AMP incubated with the three different rotifer species for the 24 hour time point is provided below in Table 5 (insecticidal AMPs) and Table 6 (non-insecticidal AMPs). The 18 and 21 hour time points gave similar results to the 24 hour time point.

Philodina acuticornis = type: in vivo; parameters: key to the marks not given beside the values; settings: AMP 0.5 mg/mL, 24 hr time point, room temperature, visual motility score
Source text: as §5, §6, §7, §8

Brachionus = type: in vivo; settings: AMP 0.5 mg/mL, 24 hr time point, room temperature, visual motility score
Source text: as §5, §6, §7, §8

[2] = 5-6 days, room temperature, 96-well, algae colour under 20× microscope, ND = AMP killed all the algae

| Compound | Minimal Inhibitory Concentration (MIC) Chlamydomonas reinhardtii [1, 2] | Minimal Inhibitory Concentration (MIC) Chlorella protothecoides (Chlorella protothecoides; [2]) | Minimal Inhibitory Concentration (MIC) Chlorella sorokiana (Chlorella sorokiniana; [2]) [µM] | “Kill” Efficiency Adineta vaga (Adineta vaga) | “Kill” Efficiency Philodina (Philodina acuticornis) | Minimal Inhibitory Concentration (MIC) Chlorella sorokiana (Chlorella sorokiniana) [µM] | “Kill” Efficiency Brachionus (Brachionus) | Minimal Inhibitory Concentration (MIC) Chlamydomonas reinhardtii [1] [µM] | Minimal Inhibitory Concentration (MIC) Chlorella protothecoides (Chlorella protothecoides) [µM] |
| --- | --- | --- | --- | --- | --- | --- | --- | --- | --- |
| CC[C@H](C)[C@H](NC(=O)CN)C(=O)NCC(=O)N[C@@H](C)C(=O)N[C@H](C(=O)N[C@@H](CC(C)C)C(=O)N[C@@H](CCCCN)C(=O)N[C@H](C(=O)N[C@@H](CC(C)C)C(=O)N[C@H](C(=O)N[C@H](C(=O)NCC(=O)N[C@@H](CC(C)C)C(=O)N1CCC[C@H]1C(=O)N[C@@H](C)C(=O)N[C@@H](CC(C)C)C(=O)N[C@H](C(=O)N[C@@H](CO)C(=O)N[C@@H](Cc1c[nH]c2ccccc12)C(=O)N[C@H](C(=O)N[C@@H](CCCCN)C(=O)N[C@@H](CCCNC(=N)N)C(=O)N[C@@H](CCCCN)C(=O)N[C@@H](CCCNC(=N)N)C(=O)N[C@@H](CCC(N)=O)C(=O)N[C@@H](CCC(N)=O)C(N)=O)[C@@H](C)CC)[C@@H](C)CC)[C@@H](C)O)[C@@H](C)O)C(C)C)C(C)C [Melittin] | ND (kills) | 11 µM | 11 | +++ | +++ |  |  |  |  |
| DFKDWMKTAGEWLKKKGPGILKAAMAAAT [Ponericin G4] | 19.8 µM | 158 µM | 79 |  |  |  |  |  |  |
| FFHHIFRGIVHVGKTIHKLVTG [Piscidin 2] |  | 24.6 µM |  | +++ | +++ | 24.6 | +++ |  |  |
| FFHHIFRGIVHVGKTIHRLVTG [Piscidin 1] |  |  |  | +++ | +++ | 24.3 | +++ | 12.2 | 12.2 |
| FIHHIFRGIVHAGRSIGRFLTG [Piscidin 3] |  |  |  | +++ | +++ | 100.3 | +++ |  |  |
| FSFKRLKGFAKKLWNSKLARKIRTKGLKYVKNFAKDMLSEGEEAPPAAEPPVEAPQ [Im-1] | 9.9 µM | 9.9 µM | 19.7 | +++ | +++ |  | +++ |  |  |
| FWGALIKGAAKLIPSVVGLFKKKQ [Ponericin W5] | 12 µM | 12 µM | 24 | +++ | +++ |  | +++ |  |  |
| GFGSLFKFLAKKVAKTVAKQAAKQGAKYVANKHME [Cupiennin 1D] | 32.9 µM | 16.5 µM | 65.9 | +++ | +++ |  |  |  |  |
| GIGKFLHSAKKFGKAFVGEIMNS [Magainin 2] |  |  |  | +++ | +++ | 50.7 | + |  |  |
| GIWGTALKWGVKLLPKLVGMAQTKKQ [Ponericin W4] | 11 µM | 43.8 µM | 87.6 | +++ | +++ |  | +++ |  |  |
| GIWGTLAKIGIKAVPRVISMLKKKKQ [Ponericin W3] | 5.5 µM | 21.8 µM | 87.3 | +++ | +++ |  | +++ |  |  |
| GLVDVLGKVGGLIKKLLP [Ponericin G6] | 17.2 µM | 274.9 µM | 274.9 |  |  |  | +++ |  |  |
| GWKDWAKKAGGWLKKKGPGMAKAALKAAMQ [Ponericin G1] | 19.5 µM | 78 µM | 155.8 | +++ | +++ |  | +++ |  |  |
| GWKDWLNKGKEWLKKKGPGIMKAALKAATQ [Ponericin G3] | 9.2 µM | 37 µM | 37 | +++ | +++ |  | +++ |  |  |
| IWLTALKFLGKHAAKHLAKQQLSKL [Lycotoxin-1, Lycotoxin I] | 22 µM | 44 µM | 88 | +++ | +++ |  | +++ |  |  |
| KWKLFKKIEKVGQNIRDGIIKAGPAVAVVGQATQIAK [Cecropin A] | 15.6 µM | 124.9 µM | 124.9 | +++ | ++ |  |  |  |  |
| KWKLFKKIGIGKFLHWAKKF [W16-CA(1-8)-MA(1-12)] | 12.5 µM | ND (kills) | 25 | +++ | +++ |  | + |  |  |
| LLKELWTKIKGAGKAVLGKIKGLL [Ponericin L2] | 12.1 µM | 48.5 µM | 97 | +++ | +++ |  |  |  |  |
| MASRHMFLPLIGRVLSGIL [MsrA3] | 29.6 µM | 59.2 µM |  | +++ | +++ |  | + |  |  |
| WLGSALKIGAKLLPSVVGLFKKKKQ [Ponericin W1] | 11.5 µM | 23.1 µM | 46.1 | +++ | +++ |  | +++ |  |  |
